Measurements as given in the supplement of paper PMC8149375.

Key:
Settings in all cases: treatment: drug + dasatinib (fixed dose, not stated); 5 days
ACHN [1] = experiment: AUC of dose-response viability curve, drug + dasatinib, normalised to DMSO (arbitrary (AUC of normalised viability)); higher = less growth inhibition
Procedure: (§1)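 Primary HTS combination arm: 8 RCC cell lines treated with 8 doses (up to 10 uM) of each library drug plus a fixed dose of dasatinib (dose not stated) for 5 days; viability read by CellTiter-Glo and normalised to DMSO. GI50 was fitted with XLfit, AUC is the area under the dose-response curve, and minimum viability is the lowest fraction of DMSO viability across doses.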

786-O [2] = experiment: as above
Procedure: as §1

TK-10 [3] = experiment: as above
Procedure: as §1

UO-31 [4] = experiment: as above
Procedure: as §1

SN12C [5] = experiment: as above
Procedure: as §1

CAKI-1 [6] = experiment: as above
Procedure: as §1

A498 [7] = experiment: as above
Procedure: as §1

769-P [8] = experiment: as above
Procedure: as §1

ACHN [9] = experiment: minimum viability across doses, drug + dasatinib, relative to DMSO (fraction); higher = less growth inhibition
Procedure: as §1

786-O [10] = experiment: as above
Procedure: as §1

TK-10 [11] = experiment: as above
Procedure: as §1

UO-31 [12] = experiment: as above
Procedure: as §1

SN12C [13] = experiment: as above
Procedure: as §1

CAKI-1 [14] = experiment: as above
Procedure: as §1

A498 [15] = experiment: as above
Procedure: as §1

769-P [16] = experiment: as above
Procedure: as §1

ACHN [17] = experiment: GI50 of drug in presence of dasatinib; higher = less potent
Procedure: as §1

786-O [18] = experiment: as above
Procedure: as §1

TK-10 [19] = experiment: as above
Procedure: as §1

UO-31 [20] = experiment: as above
Procedure: as §1

SN12C [21] = experiment: as above
Procedure: as §1

CAKI-1 [22] = experiment: as above
Procedure: as §1

A498 [23] = experiment: as above
Procedure: as §1

769-P [24] = experiment: as above
Procedure: as §1

| SMILES | AUC of dose-response viability curve (ACHN [1]) | AUC of dose-response viability curve (786-O [2]) | AUC of dose-response viability curve (TK-10 [3]) | AUC of dose-response viability curve (UO-31 [4]) | AUC of dose-response viability curve (SN12C [5]) | AUC of dose-response viability curve (CAKI-1 [6]) | AUC of dose-response viability curve (A498 [7]) | AUC of dose-response viability curve (769-P [8]) | minimum viability across doses (ACHN [9]) | minimum viability across doses (786-O [10]) | minimum viability across doses (TK-10 [11]) | minimum viability across doses (UO-31 [12]) | minimum viability across doses (SN12C [13]) | minimum viability across doses (CAKI-1 [14]) | minimum viability across doses (A498 [15]) | minimum viability across doses (769-P [16]) | GI50 of drug (ACHN [17]) | GI50 of drug (786-O [18]) | GI50 of drug (TK-10 [19]) | GI50 of drug (UO-31 [20]) | GI50 of drug (SN12C [21]) | GI50 of drug (CAKI-1 [22]) | GI50 of drug (A498 [23]) | GI50 of drug (769-P [24]) |
| --- | --- | --- | --- | --- | --- | --- | --- | --- | --- | --- | --- | --- | --- | --- | --- | --- | --- | --- | --- | --- | --- | --- | --- | --- |
| COc1cc2c(Nc3ccc(NC(=O)c4ccccc4)cc3)ncnc2cc1OCCCN1CCOCC1 + Cc1nc(Nc2ncc(C(=O)Nc3c(C)cccc3Cl)s2)cc(N2CCN(CCO)CC2)n1 [dasatinib] | 1.54 | 2.13 | 2.35 | 3.27 | 2.43 | 1.76 | 3.33 | 2.17 | 0.095 | 0.0181 | 0.191 | 0.0966 | 0.383 | 0.0572 | 0.283 | 0.24 | 0.00424 µM | 1.21 µM | 4.12 µM | 5.77 µM | > 10 µM | 0.385 µM | 9.27 µM | 2.91 µM |
| C[C@@H](N)[C@H]1CC[C@H](C(=O)Nc2ccncc2)CC1.Cl.Cl + Cc1nc(Nc2ncc(C(=O)Nc3c(C)cccc3Cl)s2)cc(N2CCN(CCO)CC2)n1 [dasatinib] | 2.61 | 2.82 | 2.98 | 3.41 | 2.5 | 2.31 | 3.4 | 2.34 | 0.673 | 0.699 | 0.754 | 0.697 | 0.657 | 0.584 | 0.877 | 0.588 | > 10 µM | > 10 µM | > 10 µM | > 10 µM | > 10 µM | > 10 µM | > 10 µM | > 10 µM |
| Cc1nc(NC(=O)N2CCC[C@H]2C(N)=O)sc1-c1csc(C(C)(C)C)n1 [A66] + Cc1nc(Nc2ncc(C(=O)Nc3c(C)cccc3Cl)s2)cc(N2CCN(CCO)CC2)n1 [dasatinib] | 2.1 | 1.88 | 2.49 | 3.38 | 2.33 | 2.31 | 3.64 | 2.43 | 0.429 | 0.352 | 0.561 | 0.761 | 0.527 | 0.539 | 0.784 | 0.548 | 1.13 µM | 0.323 µM | > 10 µM | > 10 µM | > 10 µM | > 10 µM | > 10 µM | > 10 µM |
| CC1(C)CCC(CN2CCN(c3ccc(C(=O)NS(=O)(=O)c4ccc(NCC5CCOCC5)c([N+](=O)[O-])c4)c(Oc4cnc5[nH]ccc5c4)c3)CC2)=C(c2ccc(Cl)cc2)C1 [ABT-199 (GDC-0199 )] + Cc1nc(Nc2ncc(C(=O)Nc3c(C)cccc3Cl)s2)cc(N2CCN(CCO)CC2)n1 [dasatinib] | 2.01 | 2.43 | 2.39 | 3.9 | 2.51 | 2.29 | 3.56 | 2.58 | 0.542 | 0.586 | 0.61 | 1 | 0.68 | 0.592 | 0.899 | 0.692 | > 10 µM | > 10 µM | > 10 µM | > 10 µM | > 10 µM | > 10 µM | > 10 µM | > 10 µM |
| CC1(C)CCC(c2ccc(Cl)cc2)=C(CN2CCN(c3ccc(C(=O)NS(=O)(=O)c4ccc(N[C@H](CCN5CCOCC5)CSc5ccccc5)c(S(=O)(=O)C(F)(F)F)c4)cc3)CC2)C1 [ABT-263 (Navitoclax)] + Cc1nc(Nc2ncc(C(=O)Nc3c(C)cccc3Cl)s2)cc(N2CCN(CCO)CC2)n1 [dasatinib] | 1.9 | 1.46 | 2.03 | 2 | 2.48 | 2.36 | 3.01 | 1.92 | 0.0781 | 0.00344 | 0.0882 | 0.00471 | 0.502 | 0.555 | 0.608 | 0.024 | 1.06 µM | 0.136 µM | 1.08 µM | 0.4 µM | > 10 µM | > 10 µM | > 10 µM | 0.768 µM |
| CN(C)CC[C@H](CSc1ccccc1)Nc1ccc(S(=O)(=O)NC(=O)c2ccc(N3CCN(Cc4ccccc4-c4ccc(Cl)cc4)CC3)cc2)cc1[N+](=O)[O-] [ABT-737] + Cc1nc(Nc2ncc(C(=O)Nc3c(C)cccc3Cl)s2)cc(N2CCN(CCO)CC2)n1 [dasatinib] | 1.9 | 1.74 | 2.24 | 3.71 | 2.58 | 2.41 | 3.1 | 2.31 | 0.23 | 0.00111 | 0.144 | 0.00776 | 0.515 | 0.65 | 0.171 | 0.0505 | 2.56 µM | 0.469 µM | 3.3 µM | 3.31 µM | > 10 µM | > 10 µM | 5.92 µM | 2.14 µM |
| CCN1CCN(Cc2ccc(-c3cc4c(N[C@H](C)c5ccccc5)ncnc4[nH]3)cc2)CC1 [AEE788 (NVP-AEE788)] + Cc1nc(Nc2ncc(C(=O)Nc3c(C)cccc3Cl)s2)cc(N2CCN(CCO)CC2)n1 [dasatinib] | 1.19 | 2.38 | 1.92 | 2.92 | 2.16 | 2 | 2.9 | 1.81 | 0.0466 | 0.0446 | 0.0139 | 0.00751 | 0.218 | 0.0223 | 0.258 | 0.0653 | 0.0137 µM | 4.45 µM | 0.305 µM | 1.79 µM | 2.1 µM | 1.77 µM | 5.83 µM | 0.298 µM |
